{"source": "patent US20240148674A1", "about": "“PHARMACEUTICALLY ACCEPTABLE SALTS OF MESDOPETAM AND USES THEREOF” (priority 2020, published 2024)", "key": {"[1]": {"test_system": "unilateral 6-OHDA-lesioned rats", "test": "Rodent unilateral 6-OHDA lesion model of L-DOPA sensitization, rotation test by ROTORAT", "assay_type": "in vivo, Sprague Dawley rats", "details": "for Contralateral turns, test compound given alone: without L-DOPA, 0-2.5 h", "method": "The unilateral 6-OHDA lesion model is an established animal model of Parkinson's disease (see e.g. Exp. Neurol. 194: 66-75 (2005)). The neurotoxin 6-OH-DA is injected in the medial forebrain bundle (MFB), resulting in depletion of dopamine e.g. in the striatum. Upon repeated administration of L-DOPA, the animals with such a lesion display sensitization to L-DOPA, captured by rotational behaviour measured as associated with the development of LIDs. The effects of IRL790 (as a HCl-salt) on fully established AIMs have been published previously (J. Pharmacol. Exp. Ther. 374: 113-125 (2020)). Thus, in this article the administration of IRL790 was […]. […] The co-administration of said test compound with the L-DOPA was not preceded by treatment with L-DOPA. The clinically used antidyskinetic compound amantadine (as a HCl-salt) together with L-DOPA was used for comparison.\nFor the evaluation of sensitization to L-DOPA the rodent unilateral 6-OH-DA-lesion model was used. Adult 150˜200 g female Sprague Dawley rats (Charles River) were housed in temperature- and humidity-controlled rooms (20° C., 53% humidity) with a 12 h dark/light cycle. The rats had access to standard food pellets and water ad libitum. The experiments were approved by the local ethical committee at Karolinska Institute (Stockholm North Ethical Committee, N1525/2017) and conducted in accordance with the European Communities Council Directive of 24 Nov. 1986 (86/609/EEC).\nExperimental procedures including unilateral 6-OH-DA-lesions and behavioral assessments were carried as follows. Rats were anesthetized using a mixture of ketamine (100 mg/kg, i.p.; Parke-Davis, Boxmeer, The Netherlands) and xylazine (10 mg/kg, i.p.; Bayer, Kiel, Germany), pretreated with a mixture of desipramine (25 mg/kg, i.p.; Sigma-Aldrich) and pargyline (5 mg/kg, i.p.; Sigma-Aldrich) 30 minutes before lesioning to prevent uptake of 6-OHDA into noradrenergic neurons, and to prevent extracellular metabolism of 6-OHDA, respectively. Rats were placed in a stereotaxic frame (David Kopf Instruments, KOPF®, USA) and injected with temgesic (0.1 mg/kg, s.c., Apoteket, Sweden) before surgery; 2 μl 6-OHDA (5 μg/μl in saline containing 0.02% w/v ascorbic acid, Sigma-Aldrich) was injected into the right MFB, stereotaxic coordinates AP: −2.5 mm, ML: −2.0 mm, DV: −8.5 mm vs. bregma and dural surface (The Rat Brain in Stereotaxic Coordinates 6th Edition, George Paxinos and Charles Watson, 2007) in order to selectively lesion dopaminergic cells in the right brain hemisphere. Post-operative analgesia (Temgesic, s.c.) was administered twice within 48 hours after surgery. Two weeks following surgery, rats were treated with apomorphine (1 mg/kg i.p.; Sigma-Aldrich) to verify successful lesioning. […]"}, "[2]": {"test_system": "Parkinson's patients with L-DOPA induced dyskinesia (LIDs)", "test": "Human clinical study, 24-hour patient home diaries (good ON time)", "assay_type": "in vivo", "from_the_text": "Home diaries have gained wide acceptance as endpoints for clinical development of therapeutics aiming to reduce treatment-related motor complications. Motor fluctuations are associated with compromise in activities of daily living and health-related quality of life. In clinical trials performed by Integrative Research Laboratories Sweden AB patients record their 24-hours motor function in 30-minute intervals, beginning at midnight. For each 30-minute interval the patient rates the state he or she has been in for the past 30 minutes; OFF, ON without troublesome dyskinesia or ON with troublesome dyskinesia. The patient also denoted the time when he or she has been asleep.\nIn general, an “OFF” time reduction or “good ON-time” increase of 1 hour may be considered clinically significant and has been used as an assumption in power calculations in clinical trials. Therefore, it can be assumed that shift towards more “good ON-time” of a minimum of 1-hour daily represents a clinically meaningful effect, considering the total time spent in the daily ON state (ON with and without troublesome dyskinesia) is not negatively affected by the treatment.\nA valid diary is defined as not having more than 2 hours of invalid data entries (4 invalid entries) over a given 24-hour period. An invalid diary entry is defined as more than one entry recorded in each half-hour interval, an unreadable entry, or the absence of an entry in each half-hour interval. The average diary information from 3 valid diaries (if available) for each visit will be used to calculate diary-based efficacy endpoints. If there are only 2 valid diaries for a visit, then the average information from the 2 valid diaries will be used. If only one diary is valid, information from the single valid diary will be used. If no valid diaries were available for a patient visit, then the diary information was considered missing.\nAt run-in and following treatment patients were asked to complete home diaries describing their motor status in 30-minute intervals for 24 hours. […]"}, "[3]": {"test_system": "immediate early response genes (IEGs) cfos and arc", "test": "Striatal gene expression analysis by qPCR in 6-OHDA-lesioned rats", "assay_type": "in vivo", "method": "Data is expressed as relative gene expression and was statistically evaluated by two-way ANOVA (analysis of variance).\nData is expressed as relative gene expression and was statistically evaluated by two-way ANOVA (analysis of variance). * denotes p<0.05, ** denotes p<0.01, and *** denotes p<0.001.\nWhenever L-DOPA was used in this study, it was administered together with benzerazid HCl-salt 7.5 mg/kg i.p, which is a standard procedure when L-DOPA is administered to rats in the unilateral 6-OHDA lesion model. Chronic treatment of four groups of rats was started with either: (1) L-DOPA (10 mg/kg), (2) [2-(3-fluoro-5-methanesulfonyl-phenoxy)ethyl](propyl)amine tartaric acid salt (3 mg/kg s.c.), (3) L-DOPA (10 mg/kg)+[2-(3-fluoro-5-methanesulfonyl-phenoxy)ethyl](propyl)amine tartaric acid salt (3 mg/kg s.c.), or (4) the corresponding vehicle (saline, i.p.) given once daily for 2 weeks. Additionally, two groups of rats were treated with either amantadine HCl salt (40 mg/kg ip), or L-DOPA (10 mg/kg)+amantadine HCl salt (40 mg/kg i.p.), once daily for 14 days. Behavioural assessments were performed on Day 1, Day 7, and Day 14 of chronic treatment. Thus, on Days 1, 7 and 14 contralateral rotations (i.e. rotations in the opposite direction to the side of the 6-OH-DA-lesion) were measured. Contralateral rotations were measured by Rotorat over 2.5 hours after the administration of test compound. […]"}, "[4]": {"test": "Hygroscopicity test, weighed samples kept at varied humidity at 30° C. for one week", "assay_type": "physicochemical", "details": "for Weight difference (%): 30° C., one week; for Hygroscopicity, in words: any tested relative humidity", "method": "Hygroscopicity test of the L-tartaric salt of [2-(3-fluoro-5-methanesulfonylphenoxy)-ethyl] (propyl)amine was performed by keeping exact weight samples of the salt at varied humidity at 30° C. After one week, the samples were weighed again and based on the original weight the percentage weight difference was calculated."}, "[5]": {"test_system": "adverse involuntary movements (AIMs)", "details": "J. Pharmacol. Exp. Ther. 374: 113-125, July 2020; cited from earlier work"}, "[6]": {"details": "as disclosed in PCT/EP2020/064046; cited from earlier work"}, "[7]": {"method": "The temperature was 25° C. using step intervals of 10% between 0% and 95% RH in two consecutive cycles."}, "[8]": {"details": "once daily 2 weeks, Example 7 3 mg/kg s.c., amantadine HCl salt 40 mg/kg i.p., Day 1, 7, 14"}}, "note": "Counter-ions that a name gives are not always drawn. Like-named read-outs stand apart in the source and are kept apart here.", "data": [{"smiles": "NC12CC3CC(CC(C3)C1)C2", "note": "[amantadine HCl salt, amantadine, reference compound]", "values": [{"measurement": "Contralateral turns, test compound given alone", "setting": "[1]; [8]", "value": "no contralateral turns"}]}, {"smiles": "CCCNCCOc1cc(F)cc(S(C)(=O)=O)c1", "note": "[Example 7, L-tartaric Acid Salt of [2-(3-fluoro-5-methanesulfonylphenoxy)ethyl](propyl)amine]", "values": [{"measurement": "Improvement in good ON time (mean values)", "setting": "[2]; 5 mg or less (2.5 mg in some patients) twice-daily (b.i.d.), 9 patients", "value": 2.1, "unit": "h"}, {"measurement": "Improvement in good ON time (mean values)", "setting": "[2]; 7.5 mg twice-daily (b.i.d.), 8 patients", "value": 5.6, "unit": "h"}, {"measurement": "Improvement in good ON time (mean values)", "setting": "[2]; 10 mg or more (12.5 mg in some patients) twice-daily (b.i.d.), 20 patients", "value": 1.4, "unit": "h"}, {"measurement": "Contralateral rotational behavior Day 7 or Day 14 vs Day 1, co-treated with L-DOPA (sensitization)", "setting": "[1]; co-administered with L-DOPA 10 mg/kg once daily 2 weeks, Example 7 3 mg/kg s.c., amantadine HCl salt 40 mg/kg i.p.", "value": "no significant difference"}, {"measurement": "Contralateral turns, test compound given alone", "setting": "[1]; [8]", "value": "no contralateral turns"}, {"measurement": "Effect on L-DOPA-induced increase of striatal cfos and arc expression", "setting": "[3]; combination with L-DOPA, 14 days, Example 7 3 mg/kg", "value": "attenuated"}, {"measurement": "Weight difference (%)", "setting": "[4]; Relative Humidity 0 %", "value": "−0.26", "unit": "%"}, {"measurement": "Weight difference (%)", "setting": "[4]; Relative Humidity 6 %", "value": 0.00, "unit": "%"}, {"measurement": "Weight difference (%)", "setting": "[4]; Relative Humidity 11 %", "value": "−0.06", "unit": "%"}, {"measurement": "Weight difference (%)", "setting": "[4]; Relative Humidity 22 %", "value": 0.12, "unit": "%"}, {"measurement": "Weight difference (%)", "setting": "[4]; Relative Humidity 33 %", "value": "−0.18", "unit": "%"}, {"measurement": "Weight difference (%)", "setting": "[4]; Relative Humidity 45 %", "value": "−0.13", "unit": "%"}, {"measurement": "Weight difference (%)", "setting": "[4]; Relative Humidity 56 %", "value": "−0.15", "unit": "%"}, {"measurement": "Weight difference (%)", "setting": "[4]; Relative Humidity 73 %", "value": "−0.24", "unit": "%"}, {"measurement": "Weight difference (%)", "setting": "[4]; Relative Humidity 75 %", "value": "−0.07", "unit": "%"}, {"measurement": "Weight difference (%)", "setting": "[4]; Relative Humidity 83 %", "value": 0.06, "unit": "%"}, {"measurement": "Weight difference (%)", "setting": "[4]; Relative Humidity 97 %", "value": "−0.08", "unit": "%"}, {"measurement": "Hygroscopicity, in words", "setting": "[4]", "value": "very low hygroscopicity"}, {"measurement": "Hygroscopicity, in words", "setting": "[4]; listed as L-tartaric acid salt", "value": "not hygroscopic at any relative humidities"}]}, {"smiles": "CCCNCCOc1cc(F)cc(S(C)(=O)=O)c1", "note": "[Example 2, [2-(3-fluoro-5-methanesulfonylphenoxy)ethyl](propyl)amine]", "values": [{"measurement": "Adverse involuntary movements (AIMs)", "setting": "[5]", "value": "dose-dependently reduced"}]}, {"smiles": "CCCNCCOc1cc(F)cc(S(C)(=O)=O)c1", "note": "[tartaric acid salt of [2-(3-fluoro-5-methanesulfonylphenoxy)-ethyl] (propyl)amine]", "values": [{"measurement": "Hygroscopicity, in words", "setting": "[6]", "value": "non-hygroscopic"}]}, {"smiles": "N[C@@H](Cc1ccc(O)c(O)c1)C(=O)O", "note": "[L-DOPA, L-3,4-dihydroxyphenylalanine, reference compound]", "values": [{"measurement": "Contralateral rotational behavior over time, L-DOPA alone", "setting": "[1]; L-DOPA 10 mg/kg with benzerazid 7.5 mg/kg i.p., once daily 2 weeks, Day 1, 7, 14", "value": "increasing contralateral rotational behavior"}, {"measurement": "Striatal expression of IEGs cfos and arc, L-DOPA treatment", "setting": "[3]; L-DOPA, 14 days of treatment, relative gene expression", "value": "significantly increased"}]}, {"smiles": "CCCNCCOc1cc(F)cc(S(C)(=O)=O)c1.Cl", "note": "[Example 1 of WO 2012/143337, hydrochloric acid salt of [2-(3-fluoro-5-methanesulfonylphenoxy)-ethyl](propyl)amine]", "values": [{"measurement": "Weight gained", "setting": "[7]; 95% relative humidity and 25° C., DVS", "value": "approximately 3%"}, {"measurement": "Hygroscopicity, in words", "setting": "[7]; high relative humidities", "value": "hygroscopic at high relative humidities"}]}]}
